Data published in patent US20130071340A1, “POLYOL PARTIAL ESTERS FOR USE IN COSMETICS” (priority 2010, published 2013).
Read-outs that look alike come from different tables or passages of the source.

Columns and labels:
[1] = UV filter solubility in the emollients; format: physicochemical; conditions: maximum soluble amount of ethylhexyl triazone (Uvinul T 150) in the emollient at 22 °C
From the text: This operation was repeated until the maximum soluble amount of the UV filter was exceeded. At higher concentrations, often a longer stirring time of several hours is necessary for complete dissolution. When in this way the maximum concentration had been determined approximately, for fine determination the concentration range was repeated around this maximum concentration with smaller initial weighed amounts of the UV filter.

CCCCCCCC(=O)OCC(O)CO (centres unmarked) [Glyceryl monocaprylate]
Solubility in wt % in the test emollients (test emollient: Isohexadecane): at 75% solid,
Solubility in wt % in the test emollients (test emollient: Mineral oil): <5% wt %
Solubility in wt % in the test emollients (test emollient: Octyldodecanol): at 75% solid,
Solubility in wt % in the test emollients (test emollient: Oleyl erucate): <50% wt %

PPG-15 stearyl ether
UV filter solubility: Ethylhexyl triazone [1]: 7.0%
